Values of other authors as cited in patent US20020031490A1, “Method for preparing resinates” (priority 2000, published 2002).

SMILES: COc1ccc2c(c1)c(CC(=O)O)c(C)n2C(=O)c1ccc(Cl)cc1 [indomethacin]
- solubility of indomethacin in water: 14 ppm
